Where two headings read alike, the source gives them in different places.
Assays:
[1] = target: T1, human GLP-1 receptor (hGLP-1R) (Homo sapiens, UniProt P43220); test: [125I]-GLP-1 binding, SPA with membranes of HEK293 cells expressing hGLP-1R; settings: human GLP-1R; geometric mean (SEM, n); read-out: Binding Affinity Ki, nM (SEM, n) hGLP-1R
T1 construct: expressed in transfected cells; crude membranes

[2] = target: T2, hGCGR (Homo sapiens, UniProt P47871); test: Functional cAMP formation (HTRF) in HEK-293 clonal cells expressing hGCGR, 0.1% bovine casein, without or with 1.0% human serum albumin; type: cell-based; settings: geometric mean, read-out: hGCGR EC50, nM (SEM, n)
T2 construct: expressed in transfected cells
Method in brief: (§1)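 Cells were stimulated with peptide for 30 min at 37° C, then lysed in buffer carrying cAMP-d2 and anti-cAMP Eu3+-cryptate for a competitive HTRF read after at least 60 min at room temperature. The 665/620 nm ratio was converted to nM cAMP against a standard curve.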

[3] = target: T3, hGIPR (Homo sapiens, UniProt P48546); test: Functional cAMP formation (HTRF) in HEK-293 clonal cells expressing hGIPR, 0.1% bovine casein, without or with 1.0% human serum albumin; type: cell-based; settings: for EC50: geometric mean, read-out: hGIPR EC50, nM (SEM, n); for Emax: read-out: hGIPR Emax, % ± SEM
T3 construct: expressed in transfected cells
T3 sequence (P48546 22-466): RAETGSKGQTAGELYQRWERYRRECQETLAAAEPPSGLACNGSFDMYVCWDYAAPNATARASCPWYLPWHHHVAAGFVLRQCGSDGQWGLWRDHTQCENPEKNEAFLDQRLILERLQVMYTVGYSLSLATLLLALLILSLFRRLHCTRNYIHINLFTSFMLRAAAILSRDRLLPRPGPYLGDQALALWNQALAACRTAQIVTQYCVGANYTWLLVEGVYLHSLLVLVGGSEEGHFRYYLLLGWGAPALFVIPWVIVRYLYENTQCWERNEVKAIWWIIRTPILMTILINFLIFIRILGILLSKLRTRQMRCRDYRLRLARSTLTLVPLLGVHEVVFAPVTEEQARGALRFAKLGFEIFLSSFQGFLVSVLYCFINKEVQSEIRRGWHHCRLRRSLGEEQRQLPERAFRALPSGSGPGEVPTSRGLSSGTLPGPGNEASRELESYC
Method in brief: as §1

[4] = target: hGLP-1R (Homo sapiens, UniProt P43220); test: Functional cAMP formation (HTRF) in HEK-293 clonal cells expressing hGLP-1R, 0.1% bovine casein, without or with 1.0% human serum albumin; type: cell-based; set-up: expressed in transfected cells; settings: for EC50: geometric mean, read-out: hGLP-1R EC50, nM (SEM, n); for Emax: HEK293, 0.1% bovine casein and 1.0% human serum albumin, percent of maximal response to GLP-1(7-36)NH2, read-out: hGLP-1R Emax, % ± SEM
Method in brief: as §1

[5] = target: T4, human GIP receptor (hGIPR) (Homo sapiens, UniProt P48546); test: [125I]-GIP binding, SPA with membranes of CHO cells expressing hGIPR; settings: human GIPR; geometric mean (SEM, n); read-out: Binding Affinity Ki, nM (SEM, n) hGIPR
T4 construct: expressed in transfected cells; crude membranes
T4 sequence (P48546 22-466): T3 sequence (P48546 22-466)

[6] = 0.1% bovine casein and 1.0% human serum albumin, 37° C.
[7] = cAMP, incubated at 37° C., 0.1% bovine casein (no human serum albumin)
[8] = HEK293, 0.1% bovine casein and 1.0% human serum albumin, 37° C., percent of maximal response to GIP(1-42)NH2
[9] = HEK293, percent of maximal response to GIP(1-42)NH2, 37° C., 0.1% bovine casein, arithmetic mean

Chain of hGLP-1R (P43220 24-463): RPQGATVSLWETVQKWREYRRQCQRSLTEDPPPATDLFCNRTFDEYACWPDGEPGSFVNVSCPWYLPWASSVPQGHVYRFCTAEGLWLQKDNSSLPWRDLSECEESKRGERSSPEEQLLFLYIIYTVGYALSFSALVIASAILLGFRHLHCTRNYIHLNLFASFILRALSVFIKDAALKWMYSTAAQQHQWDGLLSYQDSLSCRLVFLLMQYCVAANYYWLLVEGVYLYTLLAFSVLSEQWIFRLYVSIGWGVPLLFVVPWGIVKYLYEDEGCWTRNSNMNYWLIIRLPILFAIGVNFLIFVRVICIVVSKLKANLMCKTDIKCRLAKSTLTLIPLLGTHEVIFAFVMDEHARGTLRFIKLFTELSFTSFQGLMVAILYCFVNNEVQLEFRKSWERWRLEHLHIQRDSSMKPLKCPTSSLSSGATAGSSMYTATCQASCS
T1 sequence (P43220 24-463): as above
T2 sequence (P47871 26-477): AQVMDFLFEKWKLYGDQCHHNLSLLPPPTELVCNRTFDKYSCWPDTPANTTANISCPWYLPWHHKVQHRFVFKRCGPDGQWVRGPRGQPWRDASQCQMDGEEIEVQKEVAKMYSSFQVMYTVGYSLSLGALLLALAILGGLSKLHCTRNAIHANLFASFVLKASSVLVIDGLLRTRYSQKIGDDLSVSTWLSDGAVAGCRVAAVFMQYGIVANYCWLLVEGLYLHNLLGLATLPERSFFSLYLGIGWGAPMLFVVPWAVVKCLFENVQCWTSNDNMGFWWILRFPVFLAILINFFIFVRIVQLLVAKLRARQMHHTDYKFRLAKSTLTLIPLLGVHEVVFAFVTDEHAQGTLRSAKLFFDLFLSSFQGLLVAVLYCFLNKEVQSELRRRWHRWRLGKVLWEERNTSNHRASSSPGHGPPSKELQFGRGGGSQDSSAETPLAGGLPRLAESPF

Row | Compound | Ki [1] [nM] | EC50 [2, 6] [nM] | EC50 [2, 7] [nM] | EC50 [3, 6] [nM] | Emax [3, 8] [%] | EC50 [4, 6] [nM] | Ki [5] [nM] | EC50 [4, 7] [nM] | Emax [3, 9] [%] | EC50 [3, 7] [nM] | Emax ([4]; 37° C.) [%]
1 | CCCCCCCCCCCCCCCC(=O)N[C@@H](CCC(=O)NCCOCCOCC(=O)NCCOCCOCC(=O)NCCCC[C@H](NC(=O)[C@H](CCCN)NC(=O)[C@H](CC(=O)O)NC(=O)[C@H](CC(C)C)NC(=O)[C@](C)(CC(C)C)NC(=O)[C@@H](NC(=O)[C@H](CO)NC(=O)[C@H](Cc1ccncc1)NC(=O)[C@H](CC(=O)O)NC(=O)[C@H](CO)NC(=O)[C@@H](NC(=O)[C@](C)(Cc1ccccc1F)NC(=O)[C@@H](NC(=O)CNC(=O)[C@H](CCC(=O)O)NC(=O)C(C)(C)NC(=O)[C@@H](N)Cc1ccc(O)cc1)[C@@H](C)O)[C@@H](C)O)[C@@H](C)CC)C(=O)N[C@@H](C)C(=O)N[C@@H](CCC(N)=O)C(=O)NC(C)(C)C(=O)N[C@@H](CCC(=O)O)C(=O)N[C@@H](Cc1ccccc1)C(=O)N[C@H](C(=O)N[C@H](CCC(=O)O)C(=O)N[C@@](C)(Cc1ccc(O)cc1)C(=O)N[C@@H](CC(C)C)C(=O)N[C@H](C(=O)N[C@@H](CCCCNC(=O)COCCOCCNC(=O)COCCOCCNC(=O)CC[C@H](NC(=O)CCCCCCCCCCCCCCC)C(=O)O)C(=O)NCC(=O)NCC(=O)N1CCC[C@H]1C(=O)N[C@@H](CO)C(=O)N[C@@H](CO)C(=O)NCC(=O)N[C@@H](C)C(=O)N1CCC[C@H]1C(=O)N1CCC[C@H]1C(=O)N1CCC[C@H]1C(=O)N[C@@H](CO)C(N)=O)[C@@H](C)CC)[C@@H](C)CC)C(=O)O [Example 23] | 0.251 | > 9950 | > 9950 | 0.623 | 95.3 ± 0.863 | 1.98 | 0.0238 | – | – | – | –
2 | CCCCCCCCCCCCCCCC(=O)N[C@@H](CCC(=O)NCCOCCOCC(=O)NCCOCCOCC(=O)NCCCC[C@H](NC(=O)[C@H](CCCN)NC(=O)[C@H](CC(=O)O)NC(=O)[C@H](CC(C)C)NC(=O)[C@](C)(CC(C)C)NC(=O)[C@@H](NC(=O)[C@H](CO)NC(=O)[C@H](Cc1ccncc1)NC(=O)[C@H](CC(=O)O)NC(=O)[C@H](CO)NC(=O)[C@@H](NC(=O)[C@](C)(Cc1ccccc1F)NC(=O)[C@@H](NC(=O)CNC(=O)[C@H](CCC(=O)O)NC(=O)C(C)(C)NC(=O)[C@@H](N)Cc1ccc(O)cc1)[C@@H](C)O)[C@@H](C)O)[C@@H](C)CC)C(=O)N[C@@H](C)C(=O)N[C@@H](CCC(N)=O)C(=O)NC(C)(C)C(=O)N[C@@H](CCC(=O)O)C(=O)N[C@@H](Cc1ccccc1)C(=O)N[C@H](C(=O)N[C@H](CCC(=O)O)C(=O)N[C@@](C)(Cc1ccc(O)cc1)C(=O)N[C@@H](CC(C)C)C(=O)N[C@H](C(=O)N[C@@H](CCC(=O)O)C(=O)NCC(=O)N[C@@H](CCCCNC(=O)COCCOCCNC(=O)COCCOCCNC(=O)CC[C@H](NC(=O)CCCCCCCCCCCCCCC)C(=O)O)C(=O)N1CCC[C@H]1C(=O)N[C@@H](CO)C(=O)N[C@@H](CO)C(=O)NCC(=O)N[C@@H](C)C(=O)N1CCC[C@H]1C(=O)N1CCC[C@H]1C(=O)N1CCC[C@H]1C(=O)N[C@@H](CO)C(N)=O)[C@@H](C)CC)[C@@H](C)CC)C(=O)O [Example 24] | 0.52 | > 9950 | > 9950 | – | 92.4 ± 5.97 | 2.04 | 0.0361 | 0.0063 | – | – | –
3 | CC[C@H](C)[C@H](NC(=O)[C@H](CC(C)C)NC(=O)[C@](C)(Cc1ccc(O)cc1)NC(=O)[C@@H](CCC(=O)O)NC(=O)[C@@H](NC(=O)[C@H](Cc1ccccc1)NC(=O)[C@H](CCC(=O)O)NC(=O)C(C)(C)NC(=O)[C@H](CCC(N)=O)NC(=O)[C@H](C)NC(=O)[C@H](CCCCNC(=O)COCCOCCNC(=O)COCCOCCNC(=O)CC[C@H](NC(=O)CCCCCCCCCCCCC(=O)O)C(=O)O)NC(=O)[C@H](CCCN)NC(=O)[C@H](CC(=O)O)NC(=O)[C@H](CC(C)C)NC(=O)[C@](C)(CC(C)C)NC(=O)[C@@H](NC(=O)[C@H](CO)NC(=O)[C@H](Cc1ccc2ccccc2c1)NC(=O)[C@H](CC(=O)O)NC(=O)[C@H](CO)NC(=O)[C@@H](NC(=O)[C@](C)(Cc1ccccc1F)NC(=O)[C@@H](NC(=O)CNC(=O)[C@H](CCC(=O)O)NC(=O)C(C)(C)NC(=O)[C@@H](N)Cc1ccc(O)cc1)[C@@H](C)O)[C@@H](C)O)[C@@H](C)CC)[C@@H](C)CC)C(=O)N[C@@H](CCC(=O)O)C(=O)NCC(=O)NCC(=O)N[C@@H](CCCCNC(=O)COCCOCCNC(=O)COCCOCCNC(=O)CC[C@H](NC(=O)CCCCCCCCCCCCC(=O)O)C(=O)O)C(=O)N[C@@H](CO)C(=O)N[C@@H](CO)C(=O)NCC(=O)N[C@@H](C)C(=O)N1CCC[C@H]1C(=O)N1CCC[C@H]1C(=O)N1CCC[C@H]1C(=O)N[C@@H](CO)C(N)=O [Example 57] | 4.35 | > 9950 | > 9950 | – | 92.1 ± 5.54 | – | 0.297 | 0.14 | 91.5 ± 4.94 | 0.0135 | 114 ± 7.39
4 | CC[C@H](C)[C@H](NC(=O)[C@H](CC(C)C)NC(=O)[C@](C)(Cc1ccc(O)cc1)NC(=O)[C@@H](CCC(=O)O)NC(=O)[C@@H](NC(=O)[C@H](Cc1cc(F)cc(F)c1)NC(=O)[C@H](CCC(=O)O)NC(=O)C(C)(C)NC(=O)[C@H](CCC(N)=O)NC(=O)[C@H](C)NC(=O)[C@H](CCCCNC(=O)COCCOCCNC(=O)COCCOCCNC(=O)CC[C@H](NC(=O)CCCCCCCCCCCCC(=O)O)C(=O)O)NC(=O)[C@H](CCCN)NC(=O)[C@H](CC(=O)O)NC(=O)[C@H](CC(C)C)NC(=O)[C@](C)(CC(C)C)NC(=O)[C@@H](NC(=O)[C@H](CO)NC(=O)[C@H](Cc1ccncc1)NC(=O)[C@H](CC(=O)O)NC(=O)[C@H](CO)NC(=O)[C@@H](NC(=O)[C@](C)(Cc1ccccc1F)NC(=O)[C@@H](NC(=O)CNC(=O)[C@H](CCC(=O)O)NC(=O)C(C)(C)NC(=O)[C@@H](N)Cc1ccc(O)cc1)[C@@H](C)O)[C@@H](C)O)[C@@H](C)CC)[C@@H](C)CC)C(=O)N[C@@H](CCC(=O)O)C(=O)NCC(=O)NCC(=O)N[C@@H](CCCCNC(=O)COCCOCCNC(=O)COCCOCCNC(=O)CC[C@H](NC(=O)CCCCCCCCCCCCC(=O)O)C(=O)O)C(=O)N[C@@H](CO)C(=O)N[C@@H](CO)C(=O)NCC(=O)N[C@@H](C)C(=O)N1CCC[C@H]1C(=O)N1CCC[C@H]1C(=O)N1CCC[C@H]1C(=O)N[C@@H](CO)C(N)=O [Example 65] | 1.05 | > 9950 | > 9950 | – | 93.8 ± 6.73 | – | 0.121 | 0.3 | 95.2 ± 2.93 | 0.0139 | –
5 | CCCCCCCCCCCC(=O)N[C@@H](CCC(=O)NCCOCCOCC(=O)NCCOCCOCC(=O)NCCCC[C@H](NC(=O)[C@H](CO)NC(=O)[C@@H]1CCCN1C(=O)[C@@H]1CCCN1C(=O)[C@@H]1CCCN1C(=O)[C@H](C)NC(=O)CNC(=O)[C@H](CO)NC(=O)[C@H](CO)NC(=O)[C@@H]1CCCN1C(=O)CNC(=O)CNC(=O)[C@H](CCC(=O)O)NC(=O)[C@@H](NC(=O)[C@H](CC(C)C)NC(=O)[C@](C)(Cc1ccc(O)cc1)NC(=O)[C@@H](CCC(=O)O)NC(=O)[C@@H](NC(=O)[C@H](Cc1ccccc1)NC(=O)[C@H](CCC(=O)O)NC(=O)C(C)(C)NC(=O)[C@H](CCC(N)=O)NC(=O)[C@H](C)NC(=O)[C@H](CCCCNC(=O)COCCOCCNC(=O)COCCOCCNC(=O)CC[C@H](NC(=O)CCCCCCCCCCC)C(=O)O)NC(=O)[C@H](CCCN)NC(=O)[C@H](CC(=O)O)NC(=O)[C@H](CC(C)C)NC(=O)[C@](C)(CC(C)C)NC(=O)[C@@H](NC(=O)[C@H](CO)NC(=O)[C@H](Cc1ccncc1)NC(=O)[C@H](CC(=O)O)NC(=O)[C@H](CO)NC(=O)[C@@H](NC(=O)[C@](C)(Cc1ccccc1F)NC(=O)[C@@H](NC(=O)CNC(=O)[C@H](CCC(=O)O)NC(=O)C(C)(C)NC(=O)[C@@H](N)Cc1ccc(O)cc1)[C@@H](C)O)[C@@H](C)O)[C@@H](C)CC)[C@@H](C)CC)[C@@H](C)CC)C(N)=O)C(=O)O [Example 141] | 0.194 | > 9950 | > 9950 | 0.379 | 96 ± 7.42 | 5.78 | 0.0291 | – | 98.8 ± 1.09 | – | 115 ± 2.04

From patent US20230265151A1, “GIP/GLP1 CO-AGONIST COMPOUNDS” (priority 2020, published 2023)
